Counter-ions that a name gives are not always drawn.
Key:
[1] = tested on: Mycobacterium tuberculosis strain H37Rv (ATCC 27294); assay: Tuberculosis model in BALB/c mice; format: in vivo; details: for Survival rate, % D14: day 14; for Survival rate, % D28 / Bacterial count in lungs, log CFU D28: day 28; for Bacterial count in lungs, log CFU D28: 10.06 ± 0.304 at D1
MAC = details: 100 mg/kg IM five days a week for four weeks; cited from earlier work
glioblastoma = assay: Glioblastoma model, survival; format: in vivo; details: day 100 after tumor inoculation, same dose and schedule
E. coli ATCC 25922 = assay: Sepsis (septicemia) model in mice; format: in vivo
Method: Sepsis (septicemia) model: Escherichia coli O157 was chosen as a model infection being one of the most common nosocomial pathogens. Female BALB/C mice were infected by the intraperitoneal injection of 2.5×10^8 cells (LD90). Treatment started 2 hours post bacterial inoculation
E. coli ATCC 25922 was stored at −80° C. until use in this study. The bacterium was transferred onto Trypticase Soy Agar (TSA) plates and incubated for 18 h at 37° C. A suspension of the bacterium was prepared in PBS and added to sterile 5% hog mucin. An aliquot of the suspension was added to 5% hog gastric mucin to obtain the required concentration of inoculum (3.5×10^6 CFU/mL). Each mouse was inoculated with 0.5 mL of the appropriate inoculum preparation by IP injection. 2 hours later mice were treated with a single injection of the appropriate concentration of Gentamicin sulfate in dose 10 mg/kg (calculated by base).

[2] = BALB/c mice, 100 mg/kg IP 2/week, cumulative 800 mg/kg SM base
[3] = BALB/c mice, 200 mg/kg IP 5/week, cumulative 4000 mg/kg SM base

## [H]/N=C(/N)N[C@H]1[C@H](O)[C@@H](O)[C@H](O[C@@H]2O[C@@H](C)[C@](O)(C=O)[C@H]2O[C@@H]2O[C@@H](CO)[C@H](O)[C@@H](O)[C@@H]2NC)[C@@H](N/C(N)=N\[H])[C@@H]1O [SM USP solution, Streptomycin sulfate]
[1]; 800 mg cumulative dose of SM
  survival rate: 58%
[1]; [2]
  Survival rate, % D14: 83%
  Survival rate, % D28: 58%
[1]; BALB/c mice, 100 mg/kg IP 2/week
  Bacterial count in lungs, log CFU D28: 8.37 ± 0.367 log CFU
[1]; BALB/c mice, 200 mg/kg IP 5/week for 28 days, day 56
  Bacterial count in lungs, log CFU D56: 8.86 ± 0.18 log CFU
[1]; [3]
  Survival rate, % D14: 92%
  Survival rate, % D28: 92%
[1]; BALB/c mice, 200 mg/kg IP 5/week
  Bacterial count in lungs, log CFU D28: 7.57 ± 0.268 log CFU
[1]; positive control, cumulative 4000 mg SM
  survival rate: 92%

## [H]/N=C(/N)N[C@H]1[C@H](O)[C@@H](O)[C@H](O[C@@H]2O[C@@H](C)[C@](O)(C=O)[C@H]2O[C@@H]2O[C@@H](CO)[C@H](O)[C@@H](O)[C@@H]2NC)[C@@H](N/C(N)=N\[H])[C@@H]1O [Streptomycin]
MAC
  bacterial counts of MAC from spleen, lungs and liver: significant reduction

## COc1cccc2c1C(=O)c1c(O)c3c(c(O)c1C2=O)C[C@@](O)(C(=O)CO)C[C@@H]3O[C@H]1C[C@H](N)[C@H](O)[C@H](C)O1 [Doxorubicin in solution, Doxorubicin]
glioblastoma
  survival rate: 0%

## Gentamicin sulfate [Gentamicin sulfate solution]
E. coli ATCC 25922; 10 mg/kg single injection, day 2
  Day of death after inoculation: 2 (number of deaths): 3
E. coli ATCC 25922; 10 mg/kg single injection, day 3
  Day of death after inoculation: 3 (number of deaths): 1
E. coli ATCC 25922; 10 mg/kg single injection, day 4
  Day of death after inoculation: 4 (number of deaths): 1
E. coli ATCC 25922; E.Coli induced septicemia in mice, untreated 11%
  Survival rates: 50%
E. coli ATCC 25922; mice, 1.8 × 10^6 E. coli per mouse IP, single injection 10 mg/kg (as base) 2 hours later, observed six days
  No. dead/No. treated: 5/10

— patent US20090061009A1, “Composition and Method of Treatment of Bacterial Infections” (priority 2007, published 2009)
